Measurements published in patent US10697970B2, “S100A9 levels for predicting lenalidomide and erythropoietin responsiveness” (H. LEE MOFFITT CANCER CENTER AND RESEARCH INSTITUTE, INC., priority 2015, dated 2020).
One block for each compound: values may come before it.

What was measured:
[1] = tested on: SF3B1-K700E mutant-expressing BM cells; assay: Nuclear β-catenin confocal microscopy in SF3B1-K700E BM cells; assay type: cell-based, mouse; settings: 24 hours treatment
Experimental: (§1) MDS and normal donor BM-MNC and mouse BM cells were stained with 30×FAM-FLICA® Caspase-1 solution at a ratio of 1:30 for 2 hours at 37° C. Cells were washed and cytospins were generated using a 5 minutes centrifugation at 450 rpm. Slides were fixed at 37° C. for 10 minutes using BD Cytofix Fixation Buffer (BD Biosciences), and subsequently washed using PBS. Cells were permeabilized with 0.1% Triton X-100/2% BSA in PBS for 15 minutes at room temperature. After washing with PBS, cells were blocked using 2% BSA in PBS for 30 minutes at room temperature, and washed again. Cells were incubated with the appropriate primary antibody overnight (1:400 for NLRP3, 1:20 for β-catenin) at 4° C. The next day, cells were washed with PBS and incubated with the appropriate secondary antibodies (1:500) for 1 hour at room temperature. After washing, cells were covered with ProLong Gold Antifade Reagent with DAPI prior to the addition of a coverslip (Life Technologies). Co-localization of a-caspase-1 with NLRP3 inflammasome complexes was assessed using a Leica TCS SP5 AOBS Laser Scanning Confocal microscope (Leica Microsystems). Analysis of the inflammasome images was performed with Definiens Developer 2.0 (Definiens AG). The software was used to segment cells based on brightness and size thresholds, followed by a watershed segmentation algorithm. […]

[2] = tested on: SF3B1-K700E-expressing mutant BM cells; assay: ROS detection in SF3B1-K700E BM cells; assay type: cell-based, mouse
Excerpt: (§2) ROS were detected using CM-H2DCFDA and Cell ROX® Deep Red Reagent according to manufacturer's protocol (Life Technologies).

U2AF1-S34F mutant cells = assay: Nuclear β-catenin confocal microscopy in U2AF1-S34F mutant TF-1 cells; assay type: cell-based; settings: 24 hours treatment
[3] = tested on: SF3B1-K700E mutant-expressing BM cells; assay: ASC staining flow cytometry (inflammasome formation) in SF3B1-K700E BM cells; assay type: cell-based, mouse; settings: 24 hours treatment
Experimental: Staining was carried out as described ([…], et al. J Immunol. 2015 194(1):455-62). Briefly, cell pellets were resuspended in 1 mL of prewarmed BD Permeabilization Buffer III, and incubated on ice for 30 minutes. Cells were washed 2× with staining buffer. Following washing, cells were stained with rabbit-anti-ASC primary antibodies at a 1:1500 dilution and incubated for 90 minutes. Cells were washed, stained with secondary antibodies at a dilution of 1:1500, and incubated for 45 minutes. Cells were washed, and sample acquisitions were carried out using a BD LSR II flow cytometer and FACSDiva software.

normal BM-MNC [4] = assay: Nuclear β-catenin confocal microscopy in normal BM-MNC; assay type: cell-based, human
Experimental: as §1

HepG2 cells = assay: Epo elaboration by HepG2 cells (ELISA); assay type: cell-based, human; settings: for suppression of Epo production by the inflammatory protein alone: HepG2, vehicle control arm of lenalidomide experiment, S100A9 1 μg/ml or TNFα 10 ng/ml
Experimental: HepG2 cells, acquired from American Type Culture Collection (ATCC, Manassas, Va.), were grown in EMEM supplemented with 10% FBS and 1% penicillin/streptomycin solution. Cells were maintained at 37° C. under 5% CO2.
Quantitation of human S100A9/MRP14 in patient serum and supernatant of the HepG2 cell line was performed using CircuLex S100A9/MRP14 ELISA Kit (MBL, Nagano, Japan). Quantitative measurement of human TNFα and IL-1β from serum patients and supernatant of HepG2 cell line were performed using Human IL-1β ELISA Kit and Human TNFα ELISA Kit (Life Technologies, Carlsbad, Calif., USA). Quantitation of human Epo in patient serum and HepG2 cell line supernatant was performed using Human Erythropoietin ELISA kit (Stemcell Technologies, Vancouver, BC, Canada). All samples were performed in duplicate.

MDS patients = settings: MDS patients; cited from earlier work
U937 cells [5] = assay: Nuclear β-catenin confocal microscopy in U937 cells; assay type: cell-based; settings: U937, 5 μg/mL rhS100A9, 24 hours, compared to untreated cells
U937 cells [6] = assay: ROS detection by flow cytometry in U937 cells; assay type: cell-based; settings: U937, 5 μg/mL rhS100A9, 24 hours, compared to untreated cells
Excerpt: as §2

normal BM-MNC [7] = assay: qPCR of pyroptosis-associated genes in normal BM-MNC treated with rhS100A9; assay type: cell-based, human; settings: normal BM-MNC (n=2), 1 μg/mL rhS100A9, 24 hours
Experimental: RNA was isolated from BM-MNC using the RNeasy Mini Kit (Qiagen). cDNA was produced using the iScript cDNA Synthesis Kit (Bio-Rad). Sequences for primers can be found in Table 1. GAPDH mRNA was used for transcript normalization. cDNA was amplified using the iQ SYBR Green Supermix and the CFX96 Real-Time PCR Detection System (Bio-Rad). PCR conditions were as follows: 10 minutes at 95° C., followed by 40 cycles of amplification (15 seconds at 95° C. and 1 minute at 60° C.). Relative gene expression was calculated using the […] method.

U937 cells [8] = assay: Pore formation assay (ethidium bromide uptake) in U937 cells; assay type: cell-based; settings: U937, 12.5 μg/mL EB, 5 μg/mL rhS100A9
normal BM-MNC [9] = assay: a-caspase-1/NLRP3 confocal microscopy in normal BM-MNC treated with rhS100A9; assay type: cell-based, human; settings: 5 μg/mL rhS100A9, 24 hours
Experimental: (§3) MDS and normal donor BM-MNC and mouse BM cells were stained with 30×FAM-FLICA® Caspase-1 solution at a ratio of 1:30 for 2 hours at 37° C. Cells were washed and cytospins were generated using a 5 minutes centrifugation at 450 rpm. Slides were fixed at 37° C. for 10 minutes using BD Cytofix Fixation Buffer (BD Biosciences), and subsequently washed using PBS. Cells were permeabilized with 0.1% Triton X-100/2% BSA in PBS for 15 minutes at room temperature. After washing with PBS, cells were blocked using 2% BSA in PBS for 30 minutes at room temperature, and washed again. Cells were incubated with the appropriate primary antibody overnight (1:400 for NLRP3, 1:20 for β-catenin) at 4° C. The next day, cells were washed with PBS and incubated with the appropriate secondary antibodies (1:500) for 1 hour at room temperature. After washing, cells were covered with ProLong Gold Antifade Reagent with DAPI prior to the addition of a coverslip (Life Technologies). Co-localization of a-caspase-1 with NLRP3 inflammasome complexes was assessed using a Leica TCS SP5 AOBS Laser Scanning Confocal microscope (Leica Microsystems). Analysis of the inflammasome images was performed with Definiens Developer 2.0 (Definiens AG). The software was used to segment cells based on brightness and size thresholds, followed by a watershed segmentation algorithm. Intensity values and Pearson's correlation coefficient were extracted from the segmented cells. For β-catenin image analysis, confocal images were imported into Definiens Tissue Studio v3.0, 64 Dual in .tif format. Cells were separated from background using the RGB thresholds. Nuclei were identified by setting thresholds in the DAPI channel. Typical cells averaged 60 microns. The red intensity (β-catenin) in the nucleus and cytoplasm was established by setting thresholds to low, medium and high in the red channel on a scale of 0-255 in the red channel.

[10] = tested on: BM cells isolated from WT mice; assay: a-caspase-1/NLRP3 confocal microscopy in WT mouse BM cells treated with rhS100A9; assay type: cell-based; settings: 5 μg/mL rhS100A9, 24 hours
Experimental: as §3

U937 cells [11] = assay: Comet assay (DNA damage) in U937 cells; assay type: cell-based; settings: U937, 5 μg/mL rhS100A9, 24 hours, compared to untreated cells
Experimental: Monocytic U937 cells were treated with 5 μg/mL rhS100A9 for 24 hr. DNA damage was measured by single cell gel electrophoresis using alkaline CometAssay® according to manufacturer's protocol (Trevigen Inc.).

U937 cells [12] = assay: Pyroptosis / active caspase-1 flow cytometry in U937 cells treated with rhS100A9; assay type: cell-based
Experimental: Monocytic U937 cells were treated with the indicated concentrations of rhS100A9 for 24 hours, or with 5 μg/mL rhS100A9 for the indicated time points. Subsequently, cells were stained with 30×FAM-FLICA® Caspase-1 solution at a ratio of 1:30 for 2 hours at 37° C. Cells were washed, resuspended in 1× binding buffer, and stained with Annexin-V:PE at a dilution of 1:30 for 15 minutes at room temperature. 1× binding buffer was added to a final volume of 350 μL. Sample acquisitions were carried out using a BD FACSCalibur flow cytometer (BD Biosciences). Data were analyzed using FlowJo 9.7.5 software.

U937 cells [13] = assay: a-caspase-1/NLRP3 confocal microscopy (inflammasome formation) in U937 cells; assay type: cell-based; settings: U937, 5 μg/mL rhS100A9, 24 hours
[14] = U937, increasing concentrations of rhS100A9, 24 hours

Compound: c1ccc2c(c1)[I+]c1ccccc1-2 [DPI]
percentage of cells with elevated levels of nuclear β-catenin [1]: significantly reduced
mean percentage of ROS+ cells and ROS MFI [2]: extinguished below the level of WT controls
β-catenin activation in mutant cells (U2AF1-S34F mutant cells): effectively reduced
inflammasome formation (ASC) [3]: significantly reduced

Compound: CC(=O)N[C@@H](CS)C(=O)O [NAC, N-acetylcysteine]
percentage of cells with elevated levels of nuclear β-catenin [1]: significantly reduced
mean percentage of ROS+ cells and ROS MFI [2]: extinguished below the level of WT controls
β-catenin activation in mutant cells (U2AF1-S34F mutant cells): effectively reduced
inflammasome formation (ASC) [3]: significantly reduced
S100A9-triggered nuclear translocation of β-catenin (normal BM-MNC [4]; normal BM-MNC treated with S100A9 plus anti-oxidant): abolished

Compound: IL-1β: inflammatory cytokine interleukin-1β purchased from Sigma-Aldrich
reduction in Epo elaboration (HepG2 cells; HepG2, 10 ng/ml, 24 h exposure): 60%

Compound: TNFα
reduction in Epo elaboration (HepG2 cells; HepG2, 10 ng/ml, 24 h exposure): 40%
suppression of Epo production by the inflammatory protein alone (HepG2 cells): 30%

Compound: erythropoietin: erythropoietin treatment for anemia in MDS
patients with MDS in whom treatment may improve anemia (MDS patients): 15-20%

NLRP3 levels induced (normal BM-MNC [9]): 47.1 fold
a-caspase-1 levels induced (normal BM-MNC [9]): 2.5 fold
formation of NLRP3 inflammasomes (normal BM-MNC [9]): 2.9 fold
Compound: rhS100A9: Recombinant human S100A9, DAMP/alarmin protein, ligand for CD33 and TLR4, generated as previously described
levels of nuclear (activated) β-catenin (U937 cells [5]): marked increases
increase in mean percentage of ROS-positive cells (U937 cells [6]): 2.9 fold
expression of pyroptosis-associated genes (normal BM-MNC [7]): significantly up-regulated
uptake of ethidium bromide (U937 cells [8]): rapid and substantial uptake
inflammasome complexes [10]: marked induction
MFI of NLRP3 ([10]; versus controls): significantly increased
MFI of a-caspase-1 ([10]; versus controls): significantly increased
reduction in Epo elaboration (HepG2 cells; HepG2, 1 μg/ml, 24 h exposure): 95%
Epo elaboration (HepG2 cells; HepG2, 10 to 20 μg/ml, 24 h exposure): completely suppressed
suppression of Epo production by the inflammatory protein alone (HepG2 cells): 95%
increase in DNA damage (U937 cells [11]): 4.1 fold
activation of caspase-1 (U937 cells [12]; U937, 5 μg/mL rhS100A9 over time): time-dependent increase
a-caspase-1 MFI and percentage of a-caspase-1+ cells (U937 cells [12]; [14]): corresponding increase
fraction of pyroptotic cells (U937 cells [12]; [14]): concentration-dependent increase
levels of NLRP3 inflammasome complexes (U937 cells [13]): markedly increased
levels of nuclear β-catenin (normal BM-MNC [4]; normal BM-MNC, 5 μg/mL rhS100A9, 24 hours, compared to controls): elevated levels
